Test results as given in patent publication US6407079B1, “Pharmaceutical compositions containing drugs which are instable or sparingly soluble in water and methods for their preparation” (Janssen Pharmaceutica N.V., priority 1985, dated 2002).
Values after ≈ are worked out from the molar mass of the structure shown. Like-named read-outs stand apart in the source and are kept apart here.

Columns and labels:
physchem = settings: for solubility at 24 h: 25 °C, thermodynamic from solid; for Ratio S1:S2: 24 h, pH 6.6
[1] = Dissolution rate of medroxyprogesterone acetate from tablet (Example 5); format: physicochemical; settings: tablet with hydroxyethyl-β-cyclodextrin (MS 0.43), 5 mg drug per unit dose
Description: In 100 ml water 7 g hydroxyethyl-β-cyclodextrin (MS 0.43) and 0.5 g medroxyprogesterone acetate were dissolved. The water was then evaporated in a rotation evaporator The residue (75 mg) was powdered and after addition of 366 mg calcium hydrogen phosphate.2H2O, 60 mg corn starch, 120 mg cellulose powder (microcrystalline), 4.2 mg highly dispersed silica (AEROSIL® 200) and 4.8 mg magnesium stearate tablets with a weight of 630.0 mg and comprising 5 mg drug per unit dose were made. The dissolution rate of the medroxyprogesterone acetate from this formulation is 21 times higher when compared to a tablet comprising the same inert ingredients without addition of the β-cyclodextrin ether.

[2] = 24 h
rats = format: in vivo
Description: The acute intravenous toxicity of some β-cyclodextrins was tested on rats with the following results.

human red blood cells = assay: Haemolytic effect on human red blood cells; format: cell-based; settings: 30 minutes at 37° C., optical density at 540 nm
Description: The haemolytic effect of the methylether according to German Offenlegungsschrift 31 18 218 was compared to that of an ether used according to the invention. To this end 100 μl of a physiological sodium chloride solution with a cyclodextrin content of 10%, 800 μl of a buffer (400 mg MOPS, 36 mg Na2HPO4.2H2O, 1,6 g NaCl in 200 ml H2O) and 100 μl of a suspension of human red blood cells (three times washed with sodium chloride solution) were mixed for 30 minutes at 37° C. Thereafter the mixture was centrifuged and the optical density was determined at 540 nm.
a) 100 μl sodium chloride solution+buffer+0% haemolysis
b) 900 μl water→100% haemolysis

[3] = Solubility of drugs in 4% aqueous hydroxypropyl-methyl-β-cyclodextrin solution (Example 2B); settings: in water, 4% hydroxypropyl-methyl-β-cyclodextrin (DS 0.96; MS 0.43)
[4] = cited from earlier work
[5] = German Offenlegungsschrift 31 18 218; cited from earlier work
[6] = Storage stability of indometacin solutions, HPLC (Example 3); format: physicochemical; settings: for Indometacin content: 21° C.
Description: In 10 ml phosphate buffer solution 0.7 g hydroxyethyl-β-cyclodextrin (MS 0.43) were dissolved together with 0.04 g indometacin at 25° C. until a clear solution was formed. […] (B). In a parallel test a saturated indometacin solution in a phosphate buffer solution (0.21 mg/ml) was stored under the same conditions (A). The great improved stability of the composition according to the invention is apparent.

[7] = pH 6.6, aqueous with cosolvent or surfactant or cyclodextrin

CC(=O)[C@H]1CC[C@H]2[C@@H]3CCC4=CC(=O)CC[C@]4(C)[C@H]3CC[C@]12C [Progesterone]
solubility at 24 h (physchem; pH 6.6, aqueous buffer): 7.1 µg/mL (≈ 0.0226 mM)
solubility at 24 h (physchem; [7]): 7690 µg/mL (≈ 24.5 mM)
Ratio S1:S2 (physchem): 1:1083.0

CC(=O)O[C@]1(C(C)=O)CC[C@H]2[C@@H]3C[C@H](C)C4=CC(=O)CC[C@]4(C)[C@H]3CC[C@@]21C [medroxyprogesterone acetate]
Dissolution rate, times higher than tablet without β-cyclodextrin ether [1]: 21 times

COC(=O)Nc1nc2cc(C(=O)c3ccc(F)cc3)ccc2[nH]1 [Flubendazole]
R, ratio of saturation solubility with and without β-cyclodextrin derivative [2]: 30

C[C@@H]1C[C@H]2[C@@H]3CCC4=CC(=O)C=C[C@]4(C)[C@@]3(F)[C@@H](O)C[C@]2(C)[C@@]1(O)C(=O)CO [Dexamethasone]
solubility at 24 h (physchem; pH 6.6, aqueous buffer): 83 µg/mL (≈ 0.211 mM)
solubility at 24 h (physchem; [7]): 14300 µg/mL (≈ 36.4 mM)

dimethyl-β-cyclodextrin [dimethyl-β-cyclodextrin (DS 2.0)]
LD50 in rats (i.v.) (rats): 200-207 mg/kg bodyweight
C50%, concentration at which 50% haemolysis occurred (human red blood cells): 0.33%
C100%, concentration at which 100% haemolysis occurred (human red blood cells): 0.5%

CCOC(=O)Nc1ccc(SC[C@@H]2CO[C@@](Cn3ccnc3)(c3ccc(Cl)cc3Cl)O2)cc1 [Tubulazole]
R, ratio of saturation solubility with and without β-cyclodextrin derivative [3]: 43

Fc1ccc(C(c2ccc(F)cc2)N2CCN(C/C=C/c3ccccc3)CC2)cc1 [Flunarizine]
R, ratio of saturation solubility with and without β-cyclodextrin derivative [2]: 18

CCOC(=O)c1cncn1[C@H](C)c1ccccc1 [Etomidate]
R, ratio of saturation solubility with and without β-cyclodextrin derivative [3]: 8.5

COc1cc(N)c(Cl)cc1C(=O)NC1CCN(CCCOc2ccc(F)cc2)CC1OC (stereo not shown) [Cisapride]
R, ratio of saturation solubility with and without β-cyclodextrin derivative [2]: 3

CCC(C)n1ncn(-c2ccc(N3CCN(c4ccc(OCC5COC(Cn6cncn6)(c6ccc(Cl)cc6Cl)O5)cc4)CC3)cc2)c1=O (stereo not shown) [Itraconazole]
R, ratio of saturation solubility with and without β-cyclodextrin derivative ([2]; pH 2.5): 75
R, ratio of saturation solubility with and without β-cyclodextrin derivative ([2]; pH 5): 96

CC(=O)N1CCN(c2ccc(OCC3COC(Cn4ccnc4)(c4ccc(Cl)cc4Cl)O3)cc2)CC1 (stereo not shown) [Ketoconazole]
R, ratio of saturation solubility with and without β-cyclodextrin derivative [2]: 85

CN(C)C(=O)C(CCN1CCC(O)(c2ccc(Cl)cc2)CC1)(c1ccccc1)c1ccccc1 [Loperamide]
R, ratio of saturation solubility with and without β-cyclodextrin derivative [3]: 62

OC[C@H]1O[C@@H]2O[C@H]3[C@H](O)[C@@H](O)[C@@H](O[C@H]4[C@H](O)[C@@H](O)[C@@H](O[C@H]5[C@H](O)[C@@H](O)[C@@H](O[C@H]6[C@H](O)[C@@H](O)[C@@H](O[C@H]7[C@H](O)[C@@H](O)[C@@H](O[C@H]8[C@H](O)[C@@H](O)[C@@H](O[C@H]1[C@H](O)[C@H]2O)O[C@@H]8CO)O[C@@H]7CO)O[C@@H]6CO)O[C@@H]5CO)O[C@@H]4CO)O[C@@H]3CO [β-cyclodextrin]
Water solubility [4]: 1.8 g/100 ml
LD50 in rats (i.v.) (rats): 453 mg/kg bodyweight

COc1ccc2c(c1)c(CC(=O)O)c(C)n2C(=O)c1ccc(Cl)cc1 [Indometacine]
Increase of water solubility with the 2,6-di-O-methyl derivative of β-cyclodextrin [5]: 20.4 fold
Indometacin content ([6]; A: saturated solution in phosphate buffer, 0 weeks): 100.1%
Indometacin content ([6]; A: saturated solution in phosphate buffer, 2 weeks): 91.2%
Indometacin content ([6]; A: saturated solution in phosphate buffer, 4 weeks): 79.1%
Indometacin content ([6]; A: saturated solution in phosphate buffer, 6 weeks): 69.8%
Indometacin content ([6]; A: saturated solution in phosphate buffer, 8 weeks): 64.8%
Indometacin content ([6]; B: with hydroxyethyl-β-cyclodextrin (MS 0.43) in phosphate buffer, 0 weeks): 99.7%
Indometacin content ([6]; B: with hydroxyethyl-β-cyclodextrin (MS 0.43) in phosphate buffer, 2 weeks): 99.9%
Indometacin content ([6]; B: with hydroxyethyl-β-cyclodextrin (MS 0.43) in phosphate buffer, 4 weeks): 98.1%
Indometacin content ([6]; B: with hydroxyethyl-β-cyclodextrin (MS 0.43) in phosphate buffer, 6 weeks): 98.6%
Indometacin content ([6]; B: with hydroxyethyl-β-cyclodextrin (MS 0.43) in phosphate buffer, 8 weeks): 98.4%
Concentration of saturated indometacin solution in phosphate buffer solution ([6]; phosphate buffer solution, no cyclodextrin): 210 µg/mL
solubility at 24 h (physchem; pH 6.6, aqueous buffer): 190 µg/mL (≈ 0.531 mM)
solubility at 24 h (physchem; [7]): 5720 µg/mL (≈ 16 mM)
Ratio S1:S2 (physchem): 1:30.1

C[C@@H]1CN([C@H]2CC[C@](C#N)(c3ccc(F)cc3)CC2)CC[C@]1(C(=O)O)c1ccccc1 [Levocabastine]
R, ratio of saturation solubility with and without β-cyclodextrin derivative ([2]; pH 7.4): 8
R, ratio of saturation solubility with and without β-cyclodextrin derivative ([2]; pH 9.5): 81
